Reference: ChEMBL document CHEMBL5113518, “Discovery of a Novel G-Quadruplex and Histone Deacetylase (HDAC) Dual-Targeting Agent for the Treatment of Triple-Negative Breast Cancer” (J Med Chem, 2022)
Active and inactive are the calls of the source. The calls are words filed in the database; no cut-off is given here.

Assays:
SUM-159-PT [1] = assay: Inhibition of colony formation in human SUM159PT cells measured for 7 days by crystal violet staining based assay; assay type: functional, cell-based; conditions: dose 2.5 µM, time 7.0 day, DDE = dose-dependent effect
MDA-MB-231 [2] = assay: Inhibition of cell invasion in human MDA-MB-231 cells at 2.5 uM incubated for 48 hrs by crystal violet staining based transwell assay; assay type: functional
BT-549 [3] = assay: Cytotoxicity against human BT-549 cells harboring wild type BRCA1 and wild type BRCA2 assessed as reduction in cell viability; assay type: functional, cell-based
MDA-MB-231 [4] = assay: Antitumor activity against human MDA-MB-231 cells xenografted in BALB/c-nu/nu mouse assessed as increment ratio at 2.5 mg/kg, ip measured for 31 days; assay type: functional; conditions: time 31 day
Quadruplex DNA [5] = assay: Binding affinity to 5' FAM-labeled c-myc G4-quadruplex DNA Pu22 (unknown origin) by fluorescence quench assay; assay type: nucleic-acid assay
[6] = Toxicity in BALB/c-nu/nu mouse at 2.5 mg/kg, ip measured for 31 days; assay type: organism-based; conditions: in vivo, 744 h, time 31 day
Quadruplex DNA [7] = assay: Binding affinity to 5' FAM and 3' TAMRA-labeled c-myc G4-quadruplex DNA duplex (unknown origin) assessed as change in melting temperature by fluorescence resonance energy transfer assay; assay type: nucleic-acid assay
MDA-MB-231 [8] = assay: Effect on metabolism in human MDA-MB-231 cells assessed as oxygen consumption rate at 2.5 uM measured after 48 hrs by seahorse XF24 analysis; assay type: functional, cell-based
Histone deacetylase 1 = Histone deacetylase 1 (Homo sapiens, UniProt Q13547); assay: Inhibition of full length recombinant C-terminal GST-tagged human HDAC1 expressed in baculovirus infected Sf9 insect cells incubated for 50 mins by Glo- luminescence assay
Histone deacetylase 1, sequence (Q13547 whole entry): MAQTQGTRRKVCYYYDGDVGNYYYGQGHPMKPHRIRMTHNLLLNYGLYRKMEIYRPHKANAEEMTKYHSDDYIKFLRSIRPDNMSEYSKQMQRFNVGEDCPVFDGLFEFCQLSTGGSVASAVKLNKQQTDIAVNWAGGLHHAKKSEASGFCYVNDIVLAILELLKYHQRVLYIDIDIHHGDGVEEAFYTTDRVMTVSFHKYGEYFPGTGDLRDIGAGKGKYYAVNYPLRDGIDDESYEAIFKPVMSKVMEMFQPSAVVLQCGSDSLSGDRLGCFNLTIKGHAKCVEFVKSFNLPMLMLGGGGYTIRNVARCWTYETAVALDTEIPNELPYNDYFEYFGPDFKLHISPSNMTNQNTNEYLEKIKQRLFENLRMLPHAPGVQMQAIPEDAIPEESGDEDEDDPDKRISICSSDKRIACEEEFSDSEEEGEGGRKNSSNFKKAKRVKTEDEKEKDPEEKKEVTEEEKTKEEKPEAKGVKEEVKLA

MDA-MB-231 [9] = assay: Induction of cell cycle arrest in human MDA-MB-231 cells assessed as accumulation at G2/M phase at 2.5 uM measured for 6 to 48 hrs; assay type: functional, cell-based; conditions: time 6-48 hrs
SUM-159-PT [10] = assay: Cytotoxicity against human SUM159PT cells harboring wild type BRCA1 and wild type BRCA2 assessed as reduction in cell viability; assay type: functional, cell-based
MDA-MB-231 [11] = assay: Stabilization of DNA Pu22 (unknown origin ) in human MDA-MB-231 cells assessed as G4-quadruplex formation by measuring fold change at 1.25 to 5 uM incubated for 48 hrs by immunofluorescence based confocal laser scanning microscopic analysis; assay type: cell-based; conditions: dose 1.25-5 µM
Quadruplex DNA [12] = assay: Binding affinity to 5' FAM-labeled c-myc G4-quadruplex DNA Pu22 (unknown origin) assessed as dissociation constant by surface plasmon resonance assay; assay type: nucleic-acid assay
MDA-MB-231 [13] = assay: Induction of DNA damage in human MDA-MB-231 cells at 1.25 to 5 uM assessed as increase in gamma-H2AX level and measured for 48 hrs by DAPI staining method; assay type: functional, cell-based; conditions: dose 1.25-5 µM
BT-549 [14] = assay: Induction of DNA damage in human BT-549 at 1.25 to 5 uM assessed as increase in gamma-H2AX level and measured for 48 hrs by DAPI staining method; assay type: functional, cell-based; conditions: dose 1.25-5 µM
MDA-MB-231 [15] = assay: Cytotoxicity against human MDA-MB-231 cells harboring wild type BRCA1 and wild BRCA2 assessed as reduction in cell viability; assay type: functional, cell-based
Quadruplex DNA [16] = assay: Binding affinity to 5' FAM and 3' TAMRA-labeled […] (unknown origin) assessed as change in melting temperature by fluorescence resonance energy transfer assay; assay type: nucleic-acid assay
Histone deacetylase = assay: Inhibition of HDAC in human HeLa nuclear extract incubated for 30 mins by fluorescence-based Glo-luminescence assay; assay type: cell-based
Histone deacetylase 4 = Histone deacetylase 4 (Homo sapiens, UniProt P56524); assay: Inhibition of full length recombinant N-terminal GST-tagged human HDAC4 (612 to end residues)expressed in baculovirus infected Sf9 insect cells incubated for 50 mins by Glo- luminescence assay
Histone deacetylase 4, sequence (P56524 whole entry): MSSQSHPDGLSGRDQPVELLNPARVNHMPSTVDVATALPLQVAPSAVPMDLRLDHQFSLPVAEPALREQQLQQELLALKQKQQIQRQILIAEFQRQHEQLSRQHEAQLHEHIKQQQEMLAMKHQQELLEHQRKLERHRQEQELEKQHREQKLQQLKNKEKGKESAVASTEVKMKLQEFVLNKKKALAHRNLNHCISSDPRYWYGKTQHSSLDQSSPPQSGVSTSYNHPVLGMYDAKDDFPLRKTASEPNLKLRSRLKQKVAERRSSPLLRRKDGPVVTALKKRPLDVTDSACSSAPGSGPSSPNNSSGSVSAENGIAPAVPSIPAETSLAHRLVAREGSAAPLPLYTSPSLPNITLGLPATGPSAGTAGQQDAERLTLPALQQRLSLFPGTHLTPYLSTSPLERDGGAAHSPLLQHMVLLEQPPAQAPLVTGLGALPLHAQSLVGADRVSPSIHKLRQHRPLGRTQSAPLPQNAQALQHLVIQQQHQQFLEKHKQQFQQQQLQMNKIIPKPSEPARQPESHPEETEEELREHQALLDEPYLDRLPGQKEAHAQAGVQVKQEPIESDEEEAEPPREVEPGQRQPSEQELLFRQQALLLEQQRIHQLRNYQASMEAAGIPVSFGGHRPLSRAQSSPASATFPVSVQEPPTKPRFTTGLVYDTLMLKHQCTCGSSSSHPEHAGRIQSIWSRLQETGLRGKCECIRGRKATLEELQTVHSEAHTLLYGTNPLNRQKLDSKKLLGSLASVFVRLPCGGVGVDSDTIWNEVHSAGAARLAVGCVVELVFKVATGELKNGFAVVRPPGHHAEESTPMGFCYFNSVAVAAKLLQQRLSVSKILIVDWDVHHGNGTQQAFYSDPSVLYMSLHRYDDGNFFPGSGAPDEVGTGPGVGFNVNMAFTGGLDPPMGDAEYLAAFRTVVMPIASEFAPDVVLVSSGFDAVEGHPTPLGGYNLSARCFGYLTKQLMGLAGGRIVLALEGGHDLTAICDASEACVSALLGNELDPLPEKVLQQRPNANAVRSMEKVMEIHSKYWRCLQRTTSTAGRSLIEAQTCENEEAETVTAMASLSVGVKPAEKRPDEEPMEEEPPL

MDA-MB-231 [17] = assay: Inhibition of colony formation in human MDA-MB-231 cells measured for 7 days by crystal violet staining based assay; assay type: functional, cell-based; conditions: dose 2.5 µM, time 7.0 day, DDE = dose-dependent effect
[18] = Toxicity in BALB/c-nu/nu mouse assessed as toxic sign at 2.5 mg/kg, ip measured for 31 days; assay type: organism-based; conditions: in vivo, 744 h, time 31 day
[19] = target: T1, Protein deacetylase HDAC6 (Homo sapiens, UniProt Q9UBN7); assay: Inhibition of full length recombinant N-terminal GST-tagged human HDAC6 expressed in baculovirus infected Sf9 insect cells incubated for 50 mins by Glo- luminescence assay
T1 sequence (Q9UBN7 whole entry): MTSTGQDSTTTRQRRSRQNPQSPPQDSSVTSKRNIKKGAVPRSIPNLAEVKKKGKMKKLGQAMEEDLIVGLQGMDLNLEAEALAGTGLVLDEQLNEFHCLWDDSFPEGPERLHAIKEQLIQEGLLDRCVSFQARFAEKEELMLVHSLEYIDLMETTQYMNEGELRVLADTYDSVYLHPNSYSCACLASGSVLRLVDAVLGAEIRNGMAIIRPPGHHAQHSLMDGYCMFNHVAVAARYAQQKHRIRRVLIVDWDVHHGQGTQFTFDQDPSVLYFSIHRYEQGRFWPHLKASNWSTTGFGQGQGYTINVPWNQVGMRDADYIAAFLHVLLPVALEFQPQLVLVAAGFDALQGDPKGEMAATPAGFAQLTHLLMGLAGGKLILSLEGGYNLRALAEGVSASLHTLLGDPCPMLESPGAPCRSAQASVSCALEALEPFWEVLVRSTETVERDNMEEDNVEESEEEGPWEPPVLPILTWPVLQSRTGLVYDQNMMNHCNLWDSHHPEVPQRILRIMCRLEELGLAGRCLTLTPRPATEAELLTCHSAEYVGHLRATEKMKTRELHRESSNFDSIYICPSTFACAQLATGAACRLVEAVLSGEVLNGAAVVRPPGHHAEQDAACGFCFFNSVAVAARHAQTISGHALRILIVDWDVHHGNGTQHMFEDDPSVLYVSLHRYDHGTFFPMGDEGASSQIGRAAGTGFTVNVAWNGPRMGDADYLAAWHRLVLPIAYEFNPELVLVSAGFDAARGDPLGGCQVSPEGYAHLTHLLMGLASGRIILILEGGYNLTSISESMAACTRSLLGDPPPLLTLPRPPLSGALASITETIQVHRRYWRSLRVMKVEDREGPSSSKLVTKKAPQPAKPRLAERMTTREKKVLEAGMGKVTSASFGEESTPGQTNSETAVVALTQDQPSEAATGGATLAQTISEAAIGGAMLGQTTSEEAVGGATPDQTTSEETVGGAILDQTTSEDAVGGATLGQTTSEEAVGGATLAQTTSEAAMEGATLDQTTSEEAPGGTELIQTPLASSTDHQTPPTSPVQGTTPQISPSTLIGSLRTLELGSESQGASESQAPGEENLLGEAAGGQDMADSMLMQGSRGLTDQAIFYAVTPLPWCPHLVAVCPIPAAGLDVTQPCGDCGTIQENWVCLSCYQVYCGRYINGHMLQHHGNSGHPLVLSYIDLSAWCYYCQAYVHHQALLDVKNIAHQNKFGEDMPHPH

CN(C)CCCNC(=O)c1ccc(/C=C2\CCn3c2nc2cc(N4CCN(CCCCCCCC(=O)NO)CC4)c(F)cc2c3=O)cc1.Cl
inhibition (SUM-159-PT [1]): Dde | inhibition (MDA-MB-231 [2]): Active | IC50 (BT-549 [3]): 6500 nM | T/C (MDA-MB-231 [4]): 36.2% | DC50 (Quadruplex DNA [5]): 400 nM | Activity [6]: Non-Toxic | ΔTm (Quadruplex DNA [7]): 0.1 °C | Activity (MDA-MB-231 [8]): Active | IC50 (Histone deacetylase 1): 1260 nM | Activity (MDA-MB-231 [9]): Active | IC50 (SUM-159-PT [10]): 7400 nM | fold change (FC) (MDA-MB-231 [11]): 8 | Kd (Quadruplex DNA [12]): 1600 nM | Activity (MDA-MB-231 [13]): Active | Activity (BT-549 [14]): Active | IC50 (MDA-MB-231 [15]): 4100 nM | ΔTm (Quadruplex DNA [16]): 1.2 °C | IC50 (Histone deacetylase): 1900 nM | IC50 (Histone deacetylase 4): 2640 nM | inhibition (MDA-MB-231 [17]): Dde | Activity [18]: Non-Toxic | IC50 [19]: 650 nM
